Source: patent US20090076131A1, “Anti-Cancer and Anti-Inflammatory Effects of Annurca Apple Extracts and Compositions Purified Therefrom” (BAYLOR RESEARCH INSTITUTE, priority 2007, published 2009)

Key:
p14^ARF = experiment: mRNA expression by conventional RT-PCR; type: cell-based, Human
Experimental: (§1) Conventional RT-PCR was also performed to assess the mRNA expression of p14^ARF 27, p16^INK4a 28, hMLH1^29, DNMT-1^30 and DNMT-3b^31. cDNA was generated with random hexamers using 2 μg of RNA. The PCR was performed as previously reported^32. β-actin was used as an endogenous control. The statistical significance of differences between the experimental points or between groups was analyzed using Student's t-test; and differences were considered significant when P<0.05.

p16^INK4a = experiment: mRNA expression by conventional RT-PCR; type: cell-based, Human
Experimental: as §1

SMILES: Nc1ncn([C@H]2C[C@H](O)[C@@H](CO)O2)c(=O)n1 [5-aza-2dC, 5-aza-2′deoxycytidine]
- p14^ARF RNA transcripts (p14^ARF; RKO): re-expression
- p14^ARF RNA transcripts (p14^ARF; SW48 cells): appearance of RNA transcripts
- p16^INK4a RNA transcripts (p16^INK4a; RKO): re-expression
- p16^INK4a RNA transcripts (p16^INK4a; SW48 cells): appearance of RNA transcripts
